Test results published in patent publication US20100298314A1, “NOVEL JNK INHIBITORS” (Schering Corporation, priority 2006, published 2010).
“And” between values parts separate entries of the source, which are not always exact repeats. Equal values may be shown once.

Target: JNK1 (Homo sapiens, UniProt P45983)
Test: JNK1 kinase DELFIA (phosphorylation of biotinylated GST-ATF2)
Format: biochemical
Settings: DELFIA, 2 nM JNK1, final ATP 7 uM, 10 min pre-incubation; reported as range for a group
Procedure: Before initiation of kinase reactions, compounds were pre-incubated with the enzyme for 10 minutes. Pre-incubation reactions contained 50 mM HEPES pH 7.3, 10 mM MgCl2, 1 mM DTT, 75 mM NaCl, 1 mM EDTA, 1 mM EGTA, 0.01% CHAPS, 2 nM JNK1, 6 ug/mL biotinylated GST-ATF2, 0.1 mg/ml BSA, 5% DMSO and 0-100 μM compound in a total volume of 40 μL. After a 10 minute room temperature pre-incubation, 10 μL of 35 μM ATP was added to start the reaction (final concentration of ATP=7 uM). Reactions were incubated at room temperature for 30 minutes. A small aliquot (10 uL) was taken and quenched by adding into 190 uL of DELFIA Assay buffer containing 100 mM EDTA. The amount of phosphate transferred to biotinylated GST-ATF2 was measured using the Dissociation Enhanced Lanthanide Fluorescence Immuno-assay (DELFIA) from Perkin Elmer according to manufacturers protocol. Briefly, biotinylated GST-ATF2 was captured on streptavidin coated plates for 1 hour, washed twice, then incubated for 1 hour with a 1:1000 dilution of rabbit-anti-phospho-ATF2 antibody and a 1:3500 dilution of Europium-labeled anti-rabbit secondary antibody. Free antibody was removed with six washes, Europium was dissociated from the antibody, and Europium fluorescence was measured using an excitation wavelength of 340 nm and an emission wavelength of 615 nm. JNK2 and JNK3 kinase reactions were carried out similarly, with the exception that the final concentration of ATP was 4 uM and 2 uM, respectively.

Chain of JNK1 (P45983 whole entry, species assumed): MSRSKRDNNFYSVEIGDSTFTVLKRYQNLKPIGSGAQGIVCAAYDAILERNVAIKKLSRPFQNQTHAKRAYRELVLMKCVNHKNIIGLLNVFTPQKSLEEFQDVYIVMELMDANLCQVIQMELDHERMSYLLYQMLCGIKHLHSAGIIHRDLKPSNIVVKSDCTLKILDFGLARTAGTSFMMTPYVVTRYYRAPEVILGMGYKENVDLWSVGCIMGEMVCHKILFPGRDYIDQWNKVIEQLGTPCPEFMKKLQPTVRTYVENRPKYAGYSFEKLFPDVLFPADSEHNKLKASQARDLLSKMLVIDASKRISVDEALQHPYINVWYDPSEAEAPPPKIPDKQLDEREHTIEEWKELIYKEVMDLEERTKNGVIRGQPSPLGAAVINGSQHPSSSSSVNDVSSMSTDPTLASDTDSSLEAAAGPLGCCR

SMILES | IC50
Cc1nc2ccc(-n3cc(CNC(=O)c4cccn5c(C(=O)N[C@H](CO)CC(C)C)cnc45)cn3)cc2n1C [Compound 647] | 6 to 100 nM and 6 to 20 nM
O=C(NCc1ccc2c(c1)OCO2)c1cccn2c(C(=O)N[C@H](CO)c3ccccc3)c(-c3ccsc3)nc12 [Compound 238] | 6 to 100 nM
CC(C)C[C@@H](CO)NC(=O)c1c(-c2ccsc2)nc2c(C(=O)NCc3ccc4c(c3)OCO4)cccn12 [Compound 94] | 6 to 100 nM
CC(C)C[C@@H](CO)NC(=O)c1c(-c2ccccn2)nc2c(C(=O)NCc3cnc4nc(N)sc4c3)cccn12 [Compound 481] | 6 to 100 nM
CC(C)C[C@@H](CO)NC(=O)c1c(-c2ccc(Cl)cc2)nc2c(C(=O)NCc3ccc4nc(N)sc4c3)cccn12 [Compound 453] | 6 to 100 nM
CC(C)C[C@@H](CO)NC(=O)c1cnc2c(C(=O)NCc3cnn(-c4ccc(S(=O)(=O)N(C)C)cc4)c3)cccn12 [Compound 650] | 6 to 100 nM and 6 to 20 nM
CC(C)C[C@@H](CO)NC(=O)c1c(-c2ccccn2)nc2c(C(=O)NCc3ccn(-c4ccccc4)n3)cccn12 [Compound 477] | 6 to 100 nM
CC(C)C[C@@H](CO)NC(=O)c1c(-c2ccccc2F)nc2c(C(=O)NCc3ccc4nc(N)sc4c3)cccn12 [Compound 545] | 6 to 100 nM
CC(C)CC(CO)NC(=O)c1cnc2c(C(=O)NCc3cnn(-c4ccc(S(=O)(=O)N(C)C)c(Cl)c4)c3)cccn12 (centres unmarked) [Compound 651] | 6 to 100 nM and 6 to 20 nM and 6 to 10 nM
COc1ccc(-c2cc(CNC(=O)c3cccn4c(C(=O)N[C@H](CO)CC(C)C)c(-c5ccsc5)nc34)no2)cc1 [Compound 274] | 6 to 100 nM
CC(C)C[C@@H](CO)NC(=O)c1c(-c2ccccn2)nc2c(C(=O)NCc3cnn(-c4cccc(C(F)(F)F)c4)c3)cccn12 [Compound 484] | 6 to 100 nM
CC(C)C[C@@H](CO)NC(=O)c1c(-c2ccccn2)nc2c(C(=O)NCc3ccc4occc4c3)cccn12 [Compound 489] | 6 to 100 nM
Cc1nc2ccc(CNC(=O)c3cccn4c(C(=O)NCC5(O)CCCCC5)c(-c5ccsc5)nc34)cc2[nH]1 [Compound 118] | 6 to 100 nM
CC(C)C[C@@H](CO)NC(=O)c1c(-c2ccsc2)nc2c(C(=O)NCc3ccc(N4CCCCCC4)nc3)cccn12 [Compound 298] | 6 to 100 nM

Continued, values first:

IC50 | SMILES
6 to 100 nM | CCc1nc2c(C(=O)NCc3cnn(-c4ccc(S(C)(=O)=O)cc4)c3)cccn2c1C(=O)N[C@H](CO)CC(C)C [Compound 472]
6 to 100 nM | CCc1nc2c(C(=O)NCc3cnn(-c4ccc(C)cc4)c3)cccn2c1C(=O)O [Compound 445]
6 to 100 nM | CC(C)c1nc2ccc(CNC(=O)c3cccn4c(C(=O)NCC5(O)CCCCC5)c(-c5ccsc5)nc34)cc2[nH]1 [Compound 117]
6 to 100 nM | Nc1nc2ccc(CNC(=O)c3cccn4c(C(=O)NC5CCCC5CO)c(-c5ccsc5)nc34)cc2s1 (centres unmarked) [Compound 283]
6 to 100 nM | CC(C)C[C@@H](CO)NC(=O)c1c(-c2ccsc2)nc2c(C(=O)N[C@H](C)c3ccc(O)cc3)cccn12 [Compound 213]
6 to 100 nM | CC(C)C[C@@H](CO)NC(=O)c1c(-c2ccsc2)nc2c(C(=O)NCc3ccc(-c4ccccc4)nc3)cccn12 [Compound 305]
6 to 100 nM | CCCC[C@@H](CO)NC(=O)c1c(-c2ccsc2)nc2c(C(=O)NCc3ccc4nc(N)sc4c3)cccn12 [Compound 280]
6 to 100 nM | CCc1nc2c(C(=O)NCc3ccc4nc(C)sc4c3)cccn2c1C(=O)N[C@H](CO)CC(C)C [Compound 131]
6 to 100 nM | CC[C@H](C)[C@@H](CO)NC(=O)c1c(-c2ccsc2)nc2c(C(=O)NCc3ccc4nc(N)sc4c3)cccn12 [Compound 46]
6 to 100 nM | Cc1nc2ccc(CNC(=O)c3cccn4c(C(=O)NC(C)C)c(-c5ccccn5)nc34)cc2[nH]1 [Compound 480]
6 to 100 nM | CC(C)C[C@@H](CO)NC(=O)c1c(-c2ccsc2)nc2c(C(=O)NCc3cnc4nc(N)sc4c3)cccn12 [Compound 150]
6 to 100 nM | CC(C)C[C@@H](CO)NC(=O)c1c(-c2ccsc2)nc2c(C(=O)NCc3ccc(C(=O)O)cc3)cccn12 [Compound 326]

Same assay, conditions: read-out: JNK 1 IC50

IC50 | SMILES
16 nM | Cc1nc2ccc(-n3cc(CNC(=O)c4cccn5c(C(=O)N[C@H](CO)CC(C)C)cnc45)cn3)cc2n1C [Compound 647]
10 nM | CC(C)CC(CO)NC(=O)c1cnc2c(C(=O)NCc3cnn(-c4ccc(S(=O)(=O)N(C)C)c(Cl)c4)c3)cccn12 (centres unmarked) [Compound 651]
23 nM | Cc1nc2ccc(CNC(=O)c3cccn4c(C(=O)NCC5(O)CCCCC5)c(-c5ccsc5)nc34)cc2[nH]1 [Compound 118]
